Test results published in the supplement of paper PMC10307832.

The cell lines below were run with CC[C@@H]1C(=O)N(C)c2cnc(Nc3ccc(C(=O)NC4CCN(C)CC4)cc3OC)nc2N1C1CCCC1 [BI-2536] + CCNC(=O)c1noc(-c2cc(C(C)C)c(O)cc2O)c1-c1ccc(CN2CCOCC2)cc1 [Luminespib] (partner 0.01 µM) (assay: relative viability (nuclei count vs DMSO), 5 days (fraction); higher = more cells survive). Conditions: first compound 0.01 µM.
In short: (§1)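 Relative viability is defined as nuclei in treated wells over nuclei in vehicle wells. Duplicate plates were run and medians reported. Lung cancer cell lines in 1536-well plates were dosed by pin tool one day after seeding, with one drug or with a fixed anchor-drug dose plus five library-drug doses (not always all listed) in √10 steps, and nuclei were counted after 5 days.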

Cell Line	relative viability
NCI-H522	1.21
NCI-H1623	0.402
NCI-H727	0.589
NCI-H1650	0.188
NCI-H1993	0.856
SW 1573	0.123
NCI-H838	0.357
LCLC-103H	0.95
NCI-H520	0.242
NCI-H2126	0.855
EMC-BAC-2	1.22
NCI-H2085	0.396
NCI-H1666	1.01
NCI-H596	1.02
LK-2	0.184
NCI-H2087	0.161

Cell Line	relative viability
NCI-H2342	0.883
SK-MES-1	0.802
H3255	0.846
COR-L23	0.668
COR-L 105	0.882
LOU-NH91	0.372
ChaGo-K-1	0.691
NCI-H2170	0.624
NCI-H2405	0.599
HOP-62	0.949
HCC-44	1.03
SW 900	0.189
LU99A	0.251
NCI-H1563	0.483
ABC-1	0.54

Same assay, conditions: first compound 0.03162 µM

Cell Line	relative viability
NCI-H522	1.08
NCI-H1623	0.508
NCI-H727	0.324
NCI-H1650	0.166
NCI-H1993	0.747
SW 1573	0.117
NCI-H838	0.307
LCLC-103H	1.05
NCI-H520	0.199
NCI-H2126	0.512
EMC-BAC-2	1.19
NCI-H2085	0.5
NCI-H1666	0.933
NCI-H596	1.12
LK-2	0.176
NCI-H2087	0.182

Cell Line	relative viability
NCI-H2342	0.661
SK-MES-1	0.698
H3255	1.13
COR-L23	0.705
COR-L 105	0.514
LOU-NH91	0.345
ChaGo-K-1	0.615
NCI-H2170	0.802
NCI-H2405	0.435
HOP-62	0.84
HCC-44	0.261
SW 900	0.186
LU99A	0.254
NCI-H1563	0.547
ABC-1	0.293

Same assay, conditions: first compound 0.1 µM

Cell Line	relative viability
NCI-H522	1.04
NCI-H1623	0.374
NCI-H727	0.263
NCI-H1650	0.21
NCI-H1993	0.521
SW 1573	0.152
NCI-H838	0.146
LCLC-103H	0.842
NCI-H520	0.194
NCI-H2126	0.392
EMC-BAC-2	1.08
NCI-H2085	0.384
NCI-H1666	0.866
NCI-H596	0.986
LK-2	0.155
NCI-H2087	0.139
NCI-H2342	0.676
SK-MES-1	0.23
H3255	0.691
COR-L23	0.171
COR-L 105	0.434
LOU-NH91	0.306
ChaGo-K-1	0.529
NCI-H2170	0.661
NCI-H2405	0.359
HOP-62	0.419
HCC-44	0.204
SW 900	0.173
LU99A	0.194
NCI-H1563	0.545

Same assay, conditions: first compound 0.3162 µM

Cell Line	relative viability
NCI-H522	0.375
NCI-H1623	0.405
NCI-H727	0.4
NCI-H1650	0.183
NCI-H1993	0.602
SW 1573	0.122
NCI-H838	0.125
LCLC-103H	0.188
NCI-H520	0.206
NCI-H2126	0.278
EMC-BAC-2	0.251
NCI-H2085	0.29
NCI-H1666	0.382
NCI-H596	0.37
LK-2	0.177
NCI-H2087	0.136

Cell Line	relative viability
NCI-H2342	0.38
SK-MES-1	0.219
H3255	0.239
COR-L23	0.106
COR-L 105	0.325
LOU-NH91	0.279
ChaGo-K-1	0.16
NCI-H2170	0.205
NCI-H2405	0.283
HOP-62	0.121
HCC-44	0.104
SW 900	0.198
LU99A	0.159
NCI-H1563	0.507
ABC-1	0.28

Same assay, conditions: first compound 1 µM

Cell Line	relative viability
NCI-H522	0.318
NCI-H1623	0.388
NCI-H727	0.201
NCI-H1650	0.198
NCI-H1993	0.515
SW 1573	0.0874
NCI-H838	0.114
LCLC-103H	0.184
NCI-H520	0.214
NCI-H2126	0.32
EMC-BAC-2	0.22
NCI-H2085	0.262
NCI-H1666	0.34
NCI-H596	0.29
LK-2	0.176
NCI-H2087	0.157

Cell Line	relative viability
NCI-H2342	0.369
SK-MES-1	0.195
H3255	0.359
COR-L23	0.122
COR-L 105	0.327
LOU-NH91	0.267
ChaGo-K-1	0.178
NCI-H2170	0.219
NCI-H2405	0.31
HOP-62	0.188
HCC-44	0.12
SW 900	0.201
LU99A	0.241
NCI-H1563	0.372
ABC-1	0.39

The cell lines below were run with CC[C@@H]1C(=O)N(C)c2cnc(Nc3ccc(C(=O)NC4CCN(C)CC4)cc3OC)nc2N1C1CCCC1 [BI-2536] + C[C@]1(O)C[C@@H](c2nc(-c3ccc4ccc(-c5ccccc5)nc4c3)c3c(N)nccn32)C1 [Linsitinib] (partner 1 µM) in the same assay as above. Conditions: first compound 0.01 µM.
In short: as §1

Cell Line	relative viability
NCI-H727	0.416
EBC-1	0.966
NCI-H1703	0.77
NCI-H1993	0.709
SW 1573	0.696
NCI-H838	1.05
LCLC-103H	1.16
NCI-H520	0.984
NCI-H2126	0.751
EMC-BAC-2	0.852
NCI-H2085	0.958
Calu-6	0.923
HCC-366	0.648
NCI-H1666	0.86
NCI-H596	1.09
LK-2	0.528

Cell Line	relative viability
NCI-H2087	0.83
SK-MES-1	1.08
H3255	0.906
COR-L23	0.961
COR-L 105	0.829
IA-LM	0.641
LOU-NH91	0.968
NCI-H2405	0.903
HOP-62	0.89
HCC-44	0.672
A549	0.582
LU99A	0.593
HCC-78	0.613
NCI-H1299	1
NCI-H1563	1.17
ABC-1	0.816

Same assay, conditions: first compound 0.03162 µM

Cell Line	relative viability
NCI-H727	0.268
EBC-1	0.797
NCI-H1703	0.296
NCI-H1993	0.637
SW 1573	0.683
NCI-H838	0.961
LCLC-103H	1.04
NCI-H520	0.852
NCI-H2126	0.759
EMC-BAC-2	0.866
NCI-H2085	0.919
Calu-6	1.02
HCC-366	0.739
NCI-H1666	0.736
NCI-H596	1.1
LK-2	0.504

Cell Line	relative viability
NCI-H2087	1.06
SK-MES-1	1.01
H3255	1.03
COR-L23	1.06
COR-L 105	0.915
IA-LM	0.55
LOU-NH91	0.925
NCI-H2405	0.855
HOP-62	1
HCC-44	0.72
A549	0.536
LU99A	0.534
HCC-78	0.481
NCI-H1299	0.971
NCI-H1563	1.19
ABC-1	0.838

Same assay, conditions: first compound 0.1 µM

Cell Line	relative viability
NCI-H727	0.281
EBC-1	0.863
NCI-H1703	0.574
NCI-H1993	0.579
SW 1573	0.82
NCI-H838	0.96
LCLC-103H	1.05
NCI-H520	0.792
NCI-H2126	0.721
EMC-BAC-2	0.872
NCI-H2085	0.831
Calu-6	0.816
HCC-366	0.535
NCI-H1666	0.762
NCI-H596	1.11
LK-2	0.506

Cell Line	relative viability
NCI-H2087	0.927
SK-MES-1	0.979
H3255	0.903
COR-L23	0.605
COR-L 105	0.946
IA-LM	0.774
LOU-NH91	1.04
NCI-H2405	0.745
HOP-62	0.914
HCC-44	0.602
A549	0.63
LU99A	0.472
HCC-78	0.511
NCI-H1299	0.974
NCI-H1563	1.22
ABC-1	0.895

Same assay, conditions: first compound 0.3162 µM

Cell Line	relative viability
NCI-H727	0.282
EBC-1	0.172
NCI-H1703	0.117
NCI-H1993	0.528
SW 1573	0.161
NCI-H838	0.136
LCLC-103H	0.942
NCI-H520	0.153
NCI-H2126	0.46
EMC-BAC-2	0.444
NCI-H2085	0.267
Calu-6	0.0855
HCC-366	0.0173
NCI-H1666	0.224
NCI-H596	0.363
LK-2	0.12

Cell Line	relative viability
NCI-H2087	0.197
SK-MES-1	1.02
H3255	0.227
COR-L23	0.104
COR-L 105	0.277
IA-LM	0.104
LOU-NH91	0.691
NCI-H2405	0.225
HOP-62	0.135
HCC-44	0.12
A549	0.294
LU99A	0.172
HCC-78	0.52
NCI-H1299	0.245
NCI-H1563	0.73
ABC-1	0.292

Same assay, conditions: first compound 1 µM

Cell Line	relative viability
NCI-H727	0.211
EBC-1	0.154
NCI-H1703	0.0956
NCI-H1993	0.611
SW 1573	0.132
NCI-H838	0.126
LCLC-103H	0.143
NCI-H520	0.171
NCI-H2126	0.268
EMC-BAC-2	0.236
NCI-H2085	0.329
Calu-6	0.0964
HCC-366	0.0162
NCI-H1666	0.276
NCI-H596	0.39
LK-2	0.144

Cell Line	relative viability
NCI-H2087	0.163
SK-MES-1	0.176
H3255	0.226
COR-L23	0.0946
COR-L 105	0.312
IA-LM	0.164
LOU-NH91	0.289
NCI-H2405	0.468
HOP-62	0.142
HCC-44	0.0939
A549	0.0483
LU99A	0.194
HCC-78	0.207
NCI-H1299	0.363
NCI-H1563	0.766
ABC-1	0.253
